Patent US11911364B2, “Positive allosteric modulators of GABAA receptor” (PEPTICOM LTD., priority 2018, dated 2024)

Target: T1, human GABA receptor (subunits α1β3γ2) (Homo sapiens, UniProt P14867+P18507+P28472)
T1 construct: expressed in transfected cells; host or cells: HEK293
Test: Manual whole-cell patch-clamp recording of GABA receptor-mediated Cl- current in HEK293 cells
Assay type: cell-based
Details: for mode of action at the human GABAA receptor: human GABAA receptor α1β3γ2, electrophysiological recordings; for effect on human GABA receptor-mediated Cl- current: human α1β3γ2 receptor expressed in HEK293 cells, manual whole-cell patch-clamp
Procedure: All the compounds of the present invention were tested and validated using electrophysiological recordings on the human GABAA receptor comprising of the following subunits α1β3γ2. The compounds of the present invention are used in the preparation of a neuroactive pharmaceutical composition, in improving sperm motility or in labeling of biomolecules.
The human GABA receptor (subunits α1β3γ2) was expressed in HEK293 cells in manual whole-cell patch-clamp settings.
These compounds of the present invention are experimentally shown to specifically bind to the GABAA receptor. Therefore, they are capable of activating, inhibiting or modulating the GABAA receptor. These compounds were derived in-silico and tested in-vitro in cell cultures. […] The human GABA receptor (subunits α1β3γ2) used in these experiments was expressed in the HEK293 cells in manual whole-cell patch-clamp settings.

T1 sequence (P14867 28-456): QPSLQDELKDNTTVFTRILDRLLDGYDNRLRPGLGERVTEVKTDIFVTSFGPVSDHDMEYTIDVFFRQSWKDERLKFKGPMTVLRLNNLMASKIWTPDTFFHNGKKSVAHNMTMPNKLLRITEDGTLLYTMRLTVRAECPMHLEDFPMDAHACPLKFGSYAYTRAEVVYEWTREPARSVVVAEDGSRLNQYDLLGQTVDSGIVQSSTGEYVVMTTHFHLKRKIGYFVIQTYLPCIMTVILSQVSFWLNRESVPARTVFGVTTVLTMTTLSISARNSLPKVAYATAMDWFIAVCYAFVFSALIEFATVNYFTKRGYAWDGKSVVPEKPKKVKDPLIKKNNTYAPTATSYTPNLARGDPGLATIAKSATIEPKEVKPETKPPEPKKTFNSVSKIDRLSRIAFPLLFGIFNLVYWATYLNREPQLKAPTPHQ
T1 sequence (P28472 26-473): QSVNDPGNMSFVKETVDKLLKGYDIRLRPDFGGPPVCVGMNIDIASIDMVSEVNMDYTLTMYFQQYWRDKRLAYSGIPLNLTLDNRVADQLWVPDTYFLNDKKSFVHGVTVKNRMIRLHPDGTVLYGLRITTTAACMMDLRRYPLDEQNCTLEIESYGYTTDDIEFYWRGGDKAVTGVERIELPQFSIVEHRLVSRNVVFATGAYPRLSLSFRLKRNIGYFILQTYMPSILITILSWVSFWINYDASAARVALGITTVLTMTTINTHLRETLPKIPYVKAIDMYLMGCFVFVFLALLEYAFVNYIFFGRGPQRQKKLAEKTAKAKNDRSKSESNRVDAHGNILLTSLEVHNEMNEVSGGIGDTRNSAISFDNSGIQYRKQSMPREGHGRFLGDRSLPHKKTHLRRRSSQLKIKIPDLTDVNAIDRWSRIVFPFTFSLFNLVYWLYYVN
T1 sequence (P18507 40-475): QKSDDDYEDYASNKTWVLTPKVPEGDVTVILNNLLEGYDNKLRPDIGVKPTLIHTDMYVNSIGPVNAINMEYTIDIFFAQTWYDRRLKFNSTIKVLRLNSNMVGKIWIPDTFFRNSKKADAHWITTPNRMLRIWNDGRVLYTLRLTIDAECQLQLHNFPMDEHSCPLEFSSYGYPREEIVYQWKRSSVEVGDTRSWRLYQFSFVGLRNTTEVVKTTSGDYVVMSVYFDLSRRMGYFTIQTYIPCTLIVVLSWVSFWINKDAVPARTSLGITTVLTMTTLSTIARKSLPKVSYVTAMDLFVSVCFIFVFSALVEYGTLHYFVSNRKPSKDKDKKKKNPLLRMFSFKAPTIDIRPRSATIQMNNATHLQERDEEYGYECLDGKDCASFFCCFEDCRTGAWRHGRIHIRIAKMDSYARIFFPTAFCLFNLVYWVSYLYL

| SMILES | mode of action at the human GABAA receptor | effect on human GABA receptor-mediated Cl- current |
| --- | --- | --- |
| CC(C)CC(NC(=O)c1ccc(S(N)(=O)=O)o1)c1cccs1 (stereo not shown) [Compound 1] | positive allosteric modulation | selective potentiation |
| O=C(O)CC1(c2ccc(Br)cc2)CNC1 [Compound 2] | inhibiting | selective potentiation |
